This is an account of results in ChEMBL document CHEMBL4049399, “Novel pyrrolopyrimidines as Mps1/TTK kinase inhibitors for breast cancer” (Bioorg Med Chem, 2017).

Usually IC50 stands for the concentration at which inhibition is half-maximal. By solubility is commonly meant how much of the substance goes into solution per volume. Low values mean a poorly soluble substance, high ones a readily soluble substance. One may read the clearance as a measure of how efficiently the substance is removed, as volume per time. As usually defined, the AUC is the area under the concentration-time curve, a measure of exposure. Higher therefore signals more exposure.

Series [1] concerns BT-474. Briefly: Antiproliferative activity against human BT474 cells assessed as reduction in cell viability after 5 to 7 days by CellTiter 96 aqueous solution assay. The format is functional, cell-based.
Series [2] concerns BT-20. Briefly: Antiproliferative activity against human BT20 cells assessed as reduction in cell viability after 5 to 7 days by CellTiter 96 aqueous solution assay. The format is functional, cell-based.
In series [3] the test system is Hs-578T. Briefly: Antiproliferative activity against human Hs578T cells assessed as reduction in cell viability after 5 to 7 days by CellTiter 96 aqueous solution assay. It counts as functional, cell-based.
The test system of series [4] is CAL-51. The series is described as follows: Antiproliferative activity against human CAL51 cells assessed as reduction in cell viability after 5 to 7 days by CellTiter 96 aqueous solution assay. The format is functional, cell-based.
Series [5] deals with HCC1937. The series is described as follows: Antiproliferative activity against human HCC1937 cells assessed as reduction in cell viability after 5 to 7 days by CellTiter 96 aqueous solution assay. It counts as functional, cell-based.
Series [6] deals with MDA-MB-468. Briefly: Antiproliferative activity against human MDA-MB-468 cells assessed as reduction in cell viability after 5 to 7 days by CellTiter 96 aqueous solution assay. The format is functional, cell-based.
Series [7] deals with SK-BR-3. The series is described as follows: Antiproliferative activity against human SK-BR-3 cells assessed as reduction in cell viability after 5 to 7 days by CellTiter 96 aqueous solution assay. It counts as functional, cell-based.
For series [8], the system named is CAMA-1. The series is described as follows: Antiproliferative activity against human CAMA1 cells assessed as reduction in cell viability after 5 to 7 days by CellTiter 96 aqueous solution assay. The format is functional, cell-based.
Series [9] relates to MDA-MB-436. Briefly: Antiproliferative activity against human MDA-MB-436 cells assessed as reduction in cell viability after 5 to 7 days by CellTiter 96 aqueous solution assay. It counts as functional, cell-based.
Series [10] relates to AU565. Briefly: Antiproliferative activity against human AU565 cells assessed as reduction in cell viability after 5 to 7 days by CellTiter 96 aqueous solution assay. The format is functional, cell-based.
In series [11] the test system is MDA-MB-453. The series is described as follows: Antiproliferative activity against human MDA-MB-453 cells assessed as reduction in cell viability after 5 to 7 days by CellTiter 96 aqueous solution assay. It counts as functional, cell-based.
Series [12] relates to MDA-MB-231. Briefly: Antiproliferative activity against human MDA-MB-231 cells assessed as reduction in cell viability after 5 to 7 days by CellTiter 96 aqueous solution assay. The format is functional, cell-based.
Series [13] relates to MCF7. Briefly: Antiproliferative activity against human MCF7 cells assessed as reduction in cell viability after 5 to 7 days by CellTiter 96 aqueous solution assay. The format is functional, cell-based.
The test system of series [14] is BT-549. The series is described as follows: Antiproliferative activity against human BT549 cells assessed as reduction in cell viability after 5 to 7 days by CellTiter 96 aqueous solution assay. The format is functional, cell-based.
Series [15] concerns T47D. The series is described as follows: Antiproliferative activity against human T47D cells assessed as reduction in cell viability after 5 to 7 days by CellTiter 96 aqueous solution assay. The format is functional, cell-based.
Series [16] relates to CAL-51. Briefly: Antitumor activity against human CAL51 cells xenografted in athymic nude mouse assessed as reduction in tumor weight at 10 mg/kg, ip administered once daily measured after 7 weeks. The format is functional, organism-based.
A short description of series [17]: Solubility of the compound in DMSO by absorption spectrometric method. The format is physicochemical.
Series [18] concerns CAL-51. Briefly: Cytotoxicity against human CAL51 cells assessed as reduction in cell viability at 25 uM after 24 hrs by BrdU incorporation assay relative to control. It counts as functional. For orientation: Incorporation of labelled thymidine or its analogues reports DNA synthesis.
Series [19] can be described thus: Solubility of the compound in 10:5:10:75 DMSO/Tween80/PEG400/saline by absorption spectrometric method. It counts as physicochemical.
Series [20] can be described thus: Elimination half-life in ICR mouse at 20 mg/kg, iv by LC-MS/MS analysis. Conditions: in vivo, read-out: beta t1/2 (converted). It counts as ADME, organism-based.
Series [21] can be described thus: Systemic clearance in ICR mouse at 20 mg/kg, iv by LC-MS/MS analysis. The format is ADME, organism-based. Particulars: in vivo.
Series [22] deals with Tyrosine-protein kinase SYK (Homo sapiens, UniProt P43405). Briefly: Inhibition of human SYK using poly[Glu:Tyr] (4:1) as substrate in presence of [gamma-32P]ATP.
Series [23] is described as follows: AUC in ICR mouse at 50 mg/kg, ip by LC-MS/MS analysis. It counts as ADME, organism-based. Conditions: in vivo.
Series [24] relates to Mus musculus. Briefly: Toxicity in athymic nude mouse assessed as body weight at 10 mg/kg, ip administered once daily for 7 weeks measured at post last dose (reference value: 20 to 26 g). Particulars: in vivo, 1176 h. The format is organism-based.
Series [25] deals with T1, Dual specificity protein kinase TTK (Homo sapiens) (UniProt P33981).
T1 sequence (whole entry): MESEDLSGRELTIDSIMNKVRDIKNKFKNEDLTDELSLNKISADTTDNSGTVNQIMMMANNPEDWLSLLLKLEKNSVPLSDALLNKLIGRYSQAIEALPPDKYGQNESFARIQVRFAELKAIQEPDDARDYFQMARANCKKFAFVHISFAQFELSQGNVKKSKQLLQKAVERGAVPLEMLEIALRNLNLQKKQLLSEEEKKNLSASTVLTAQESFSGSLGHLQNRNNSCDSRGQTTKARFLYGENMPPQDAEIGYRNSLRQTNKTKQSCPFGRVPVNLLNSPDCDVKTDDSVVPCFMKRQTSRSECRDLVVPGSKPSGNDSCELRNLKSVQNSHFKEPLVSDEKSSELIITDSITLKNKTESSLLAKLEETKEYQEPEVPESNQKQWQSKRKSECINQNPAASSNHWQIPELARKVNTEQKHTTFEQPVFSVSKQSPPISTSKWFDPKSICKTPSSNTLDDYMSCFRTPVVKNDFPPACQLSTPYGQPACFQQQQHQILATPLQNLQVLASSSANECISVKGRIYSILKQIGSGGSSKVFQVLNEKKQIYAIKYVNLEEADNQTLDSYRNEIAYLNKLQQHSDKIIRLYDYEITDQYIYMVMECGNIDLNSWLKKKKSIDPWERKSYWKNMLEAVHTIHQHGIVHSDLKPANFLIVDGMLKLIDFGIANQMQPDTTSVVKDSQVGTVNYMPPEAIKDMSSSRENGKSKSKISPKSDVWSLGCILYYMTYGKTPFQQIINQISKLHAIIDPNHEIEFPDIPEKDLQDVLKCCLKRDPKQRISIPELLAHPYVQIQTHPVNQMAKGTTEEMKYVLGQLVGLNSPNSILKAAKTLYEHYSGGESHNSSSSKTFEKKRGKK
Briefly: Inhibition of Mps1/TTK in human CAL51 cells assessed as reduction in centriole assembly during S-phase by measuring increase in BrdU positive cells with two centrioles incubated for 24 hrs followed by BrdU incorporation during last 4 hrs of incubation. It counts as cell-based.

In series [26] the target is Non-receptor tyrosine-protein kinase TYK2 (Homo sapiens, UniProt P29597). The series is described as follows: Inhibition of human TYK2 using KKSRGDYMTMQIG as substrate in presence of [gamma-32P]ATP.
Sequence of Non-receptor tyrosine-protein kinase TYK2 (P29597 whole entry): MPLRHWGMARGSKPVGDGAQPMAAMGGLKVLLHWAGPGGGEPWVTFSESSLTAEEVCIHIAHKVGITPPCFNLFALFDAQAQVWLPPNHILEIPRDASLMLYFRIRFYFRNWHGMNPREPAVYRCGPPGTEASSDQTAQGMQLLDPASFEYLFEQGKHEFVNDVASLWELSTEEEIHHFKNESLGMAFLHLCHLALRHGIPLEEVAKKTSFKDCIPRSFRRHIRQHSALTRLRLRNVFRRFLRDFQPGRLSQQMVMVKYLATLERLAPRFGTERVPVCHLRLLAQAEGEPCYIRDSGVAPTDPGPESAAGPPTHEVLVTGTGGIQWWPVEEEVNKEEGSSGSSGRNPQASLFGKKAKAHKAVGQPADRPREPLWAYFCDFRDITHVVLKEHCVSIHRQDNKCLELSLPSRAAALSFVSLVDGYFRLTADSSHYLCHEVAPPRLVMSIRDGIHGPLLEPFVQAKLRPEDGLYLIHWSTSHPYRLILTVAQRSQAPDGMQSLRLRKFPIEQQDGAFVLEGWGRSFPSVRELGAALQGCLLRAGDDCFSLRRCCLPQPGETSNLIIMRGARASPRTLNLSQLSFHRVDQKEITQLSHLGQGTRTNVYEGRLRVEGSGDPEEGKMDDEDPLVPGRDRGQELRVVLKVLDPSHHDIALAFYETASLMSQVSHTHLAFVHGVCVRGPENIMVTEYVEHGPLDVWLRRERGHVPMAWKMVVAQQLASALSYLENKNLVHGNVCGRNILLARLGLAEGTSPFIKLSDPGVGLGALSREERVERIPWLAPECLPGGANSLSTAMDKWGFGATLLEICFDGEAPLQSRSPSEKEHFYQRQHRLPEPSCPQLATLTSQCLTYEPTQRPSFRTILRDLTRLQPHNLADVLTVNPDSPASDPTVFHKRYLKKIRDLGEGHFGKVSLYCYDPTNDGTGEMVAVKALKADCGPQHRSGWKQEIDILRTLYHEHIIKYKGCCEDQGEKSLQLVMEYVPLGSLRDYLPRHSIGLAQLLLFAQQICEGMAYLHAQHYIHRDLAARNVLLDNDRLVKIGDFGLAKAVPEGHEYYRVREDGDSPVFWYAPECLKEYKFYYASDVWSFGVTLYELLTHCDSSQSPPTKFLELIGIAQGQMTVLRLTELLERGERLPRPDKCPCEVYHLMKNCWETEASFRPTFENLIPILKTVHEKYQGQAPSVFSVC
Series [27] has as its target T1, Dual specificity protein kinase TTK (Homo sapiens). Briefly: Inhibition of Mps1/TTK in human CAL51 cells assessed as spindle assembly checkpoint arrest in response to nocodazole by measuring decrease in cyclin B level up to 10 uM by immunoblotting method. The format is cell-based. (In general: Immunoblotting shows a protein as a band on a membrane.)
Series [28] concerns Mus musculus. Briefly: Toxicity in athymic nude mouse assessed as body weight at 10 mg/kg, ip measured immediately (reference value: 20 to 26 g). Particulars: in vivo. The format is organism-based.
Series [29] has as its target Phosphatidylinositol 4,5-bisphosphate 3-kinase catalytic subunit beta isoform (Homo sapiens, UniProt P42338). Briefly: Inhibition of PI3Kbeta (unknown origin).
The target of series [30] is T1, Dual specificity protein kinase TTK (Homo sapiens). Briefly: Inhibition of Mps1/TTK in human CAL51 cells assessed as reduction in centrosome amplification during S-phase by measuring decrease in cells with more than four centrioles incubated for 24 hrs followed by BrdU incorporation during last 4 hrs of incubation. It counts as cell-based.
The test system of series [31] is CAL-51. Briefly: Antitumor activity against human CAL51 cells xenografted in athymic nude mouse assessed as reduction in tumor growth at 10 mg/kg, ip administered once daily measured after 3 to 7 weeks. It counts as functional, organism-based.
The target in series [32] is T1, Dual specificity protein kinase TTK (Homo sapiens). Particulars: 1 uM.
For series [33] the target is unchanged. Conditions: 1 uM. This is another data set of the same source.
Series [34] shares this target. The series is described as follows: Inhibition of Mps1/TTK in human MDA-MB-468 cells assessed as cell cycle arrest at mitotic stage by measuring decrease in spindle assembly checkpoint arrest in response to nocodazole by DAPI/Hoechst staining based assay.

≈ marks a conversion by molar mass, not a printed value. Calls of active or inactive are those of the source. No cut-off for these calls is given here. Some results are limits rather than exact numbers.

Sequence of Phosphatidylinositol 4,5-bisphosphate 3-kinase catalytic subunit beta isoform (P42338 whole entry, canonical isoform): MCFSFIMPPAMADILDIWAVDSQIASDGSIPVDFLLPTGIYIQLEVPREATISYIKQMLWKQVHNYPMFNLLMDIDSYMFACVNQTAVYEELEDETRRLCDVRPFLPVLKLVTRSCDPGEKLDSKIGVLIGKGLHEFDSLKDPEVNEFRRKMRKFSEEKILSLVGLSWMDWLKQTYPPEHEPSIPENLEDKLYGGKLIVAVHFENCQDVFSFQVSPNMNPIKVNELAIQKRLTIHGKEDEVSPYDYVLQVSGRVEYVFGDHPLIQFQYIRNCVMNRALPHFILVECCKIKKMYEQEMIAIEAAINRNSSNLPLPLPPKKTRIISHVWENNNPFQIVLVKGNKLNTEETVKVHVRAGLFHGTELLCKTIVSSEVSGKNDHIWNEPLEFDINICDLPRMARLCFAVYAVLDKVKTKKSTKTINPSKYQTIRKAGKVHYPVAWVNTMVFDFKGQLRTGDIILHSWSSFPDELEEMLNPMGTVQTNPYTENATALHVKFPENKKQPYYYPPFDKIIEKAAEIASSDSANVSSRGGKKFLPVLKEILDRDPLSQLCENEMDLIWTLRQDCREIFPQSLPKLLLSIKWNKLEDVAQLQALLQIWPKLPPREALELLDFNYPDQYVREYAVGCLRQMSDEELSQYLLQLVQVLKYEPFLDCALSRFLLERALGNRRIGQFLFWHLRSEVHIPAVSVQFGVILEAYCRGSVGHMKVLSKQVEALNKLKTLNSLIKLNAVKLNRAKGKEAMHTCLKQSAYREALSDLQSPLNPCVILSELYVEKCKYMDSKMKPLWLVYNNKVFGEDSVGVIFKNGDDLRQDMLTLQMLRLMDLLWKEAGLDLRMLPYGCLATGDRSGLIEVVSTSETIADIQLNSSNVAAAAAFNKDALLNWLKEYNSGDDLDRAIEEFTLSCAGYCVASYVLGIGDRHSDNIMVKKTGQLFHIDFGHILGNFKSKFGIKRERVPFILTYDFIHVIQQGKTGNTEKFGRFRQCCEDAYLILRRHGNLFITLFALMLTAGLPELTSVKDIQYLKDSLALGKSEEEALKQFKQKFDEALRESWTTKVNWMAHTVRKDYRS

In the case of `COc1cc(N2CCOCC2)ccc1Nc1nc(Nc2ccccc2S(=O)(=O)C(C)C)c2cc[nH]c2n1`, the IC50 in series [1] was 0.29 µM; in series [2], 1.71 µM; in series [3], over 10 µM; in series [4], 0.3 µM; in series [5], 1.1 µM; in series [6], 0.32 µM. The IC50 in series [7] was 0.47 µM; in series [8] it was 0.65 µM; in [9], 1.23 µM; in series [10] it was over 10 µM; in series [11], over 10 µM; in series [12], over 10 µM. The IC50 in series [13] was 0.3 µM; in series [14], 1.3 µM; in [15] it was over 10 µM.

Regarding `COc1cc(N2CCC(O)CC2)ccc1Nc1cc(Nc2ccccc2S(=O)(=O)C(C)C)c2cc[nH]c2n1`, the IC50 in [1] is over 10 µM; in series [2], over 10 µM; in series [3], over 10 µM; in series [4], 2.92 µM; in series [5], over 10 µM; in series [6] it was 1.85 µM. For the same compound, the IC50 in series [7], in series [8], in [9], in series [10], in [11] and in [12] was over 10 µM each time. The IC50 in [13] was over 10 µM; in series [14] it was 1.73 µM; in [15] it was over 10 µM.

Regarding `COc1cc(N2CCOCC2)ccc1Nc1nc(NC2CCCCC2)c2cc[nH]c2n1`, in [16], the outcome was Active. Moreover, the solubility in series [17] amounted to 53400 µg/mL (≈ 126 mM); in series [19], 5000 µg/mL (≈ 11.8 mM). Further, the figures for the Activity in series [18], in series [24] and in series [28] were 70%, 26 g and 24 g, respectively. For the same compound, the IC50 was 0.37 µM in [2]; over 10 µM in [3]; 0.55 µM in series [4]; 153 µM in [22]; 1.02 µM in series [5]; 132 µM in series [26]. In addition, the IC50 is 40.6 µM in series [29]; 0.4 µM in series [7]; 0.6 µM in series [8]; 0.95 µM in [10]; over 10 µM in [12]; over 10 µM in series [13]. Moreover, the IC50 in [15] is over 10 µM. Moreover, the half-life in series [20] is 2.28 h. In series [21], the clearance was 292 mL/min/kg. The compound further returned an AUC in series [23] of 8460 ng·h/mL. The inhibition entry in series [25] and in series [30] was “Dose-dependent effect” in each case. Moreover, the inhibition entry in [27], in series [32] and in series [33] was “Active” in each case. Further, the TGI entry in series [31] was “Active”.

Take `COc1cc(N2CCC(O)CC2)ccc1Nc1nc(Nc2ccccc2S(=O)(=O)C(C)C)c2cc[nH]c2n1`: the half-maximal inhibitory concentration (IC50) in [1] was over 10 µM; in series [2], 0.35 µM; in [3] it was over 10 µM; in series [4], 0.23 µM; in series [5] it was 0.73 µM; in [6] it was 0.19 µM. For the same compound, the IC50 in [7] was over 10 µM; in [8], 0.36 µM; in series [9] it was 0.9 µM; in [10], over 10 µM; in [11], 0.82 µM; in series [12], over 10 µM. Further, the half-inhibitory concentration (IC50) in series [13] is 0.44 µM; in series [14] it was 0.81 µM; in series [15], over 10 µM. Besides, the inhibition entry in series [25], in series [34] and in [30] was “Dose-dependent effect” each time. Moreover, the inhibition entry in [27] is “Active”.

For the compound `COc1ccccc1Nc1nc(Nc2ccccc2S(=O)(=O)C(C)C)c2cc[nH]c2n1`, the IC50 is 0.47 µM in series [1]; 0.06 µM in series [2]; over 10 µM in series [3]; 1.26 µM in series [4]; 0.84 µM in series [5]; 1.57 µM in series [6]. Besides, the IC50 in series [7] is 0.75 µM; in series [8], 0.84 µM; in series [9], 5.23 µM; in [10], over 10 µM; in series [11], over 10 µM; in series [12] it was 0.4 µM. The IC50 in series [13] was found to be 0.35 µM; in [14] it was 2.19 µM; in series [15] it was 0.33 µM.
